The record followed here is PubChem BioAssay (NCI).

Assay in all cases: DTP human tumour cell line panel, 48 h
Experiment [1] concerns SF-268 CNS.
Experiment [2] relates to EKVX NSCLC.
In experiment [3] the test system is HOP-92 NSCLC.
Experiment [4] relates to OVCAR-3 ovarian.
Experiment [5] relates to OVCAR-5 ovarian.
For experiment [6], the system named is 786-0 renal.
Experiment [7] has as its system MOLT-4 leukemia.
Experiment [8] concerns SNB-75 CNS.
Experiment [9] has as its system HCT-116 colon.
In experiment [10] the test system is TK-10 renal.
Experiment [11] concerns A498 renal.
For experiment [12], the system named is MDA-N.
Experiment [13] concerns KM12 colon.

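Grown in 96-well plates, cells were treated for 48 hours with each compound at five concentrations. Insufficient inhibition: endpoint recorded as highest concentration tested. TGI marks complete inhibition of growth.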

By TGI is commonly meant the concentration giving total growth inhibition. Read a low TGI as greater sensitivity of the cells. On to `CC1=NNC(=O)C1C1C=C(c2c[nH]c3ccccc23)OC1=O` (stereo not drawn), for which the concentration for total growth inhibition (TGI) in experiment [1], in experiment [2], in [3], in experiment [4], in experiment [5] and in experiment [6] was above 100 µM throughout. Moreover, the TGI in experiment [7], in [8], in experiment [9], in [10], in [11] and in experiment [12] was above 100 µM throughout. This compound gave a TGI in [13] above 100 µM.

For `CC1(C)CCC[C@@]2(C)C1CC[C@@]1(CO1)[C@@H]2/C=C\C(C=O)CC=O` (stereo partly drawn), the TGI in experiment [1], in experiment [2], in experiment [3], in experiment [4], in experiment [5] and in experiment [6] was above 100 µM in each case. In addition, the TGI in experiment [7] is 62.2 µM; in experiment [8], above 100 µM; in experiment [9] it was above 100 µM; in experiment [10], above 100 µM; in experiment [11], above 100 µM; in experiment [12] it was above 100 µM. This compound returned a TGI in experiment [13] above 100 µM.

On to `O=C(O)CCC(NC(=O)c1ccc(CNc2nc3cc(C(F)(F)F)ccc3nc2C(=O)O)cc1)C(=O)O` (stereo not drawn), for which the TGI in experiment [1], in [2], in experiment [3], in experiment [4], in experiment [5] and in experiment [6] was above 100 µM throughout. Moreover, the TGI in experiment [7], in [8], in experiment [9], in experiment [10], in experiment [11] and in [12] was above 100 µM each time. The same compound showed a TGI in experiment [13] above 100 µM.

In the case of `COc1ccc(C2=NN(C(=O)c3ccc(Cl)cc3)C(O)(c3cc(F)c(Cl)cc3Cl)C2)cc1` (stereo not drawn), the TGI in [1], in [2], in experiment [3], in experiment [4], in [5] and in experiment [6] was above 100 µM throughout. Moreover, the TGI in experiment [7], in experiment [8], in [9], in [10], in [11] and in experiment [12] was above 100 µM throughout. This compound also came in with a TGI in [13] above 100 µM.

`N#CC(C#N)=Cn1c(=S)[nH]c2ccc([N+](=O)[O-])cc21`: the TGI in experiment [1], in experiment [2], in [3], in experiment [4], in experiment [5] and in experiment [6] was above 100 µM in each case. Moreover, the TGI in [7], in experiment [8], in experiment [9], in [10], in experiment [11] and in [12] was above 100 µM each time. In addition, the total growth inhibition concentration (TGI) in experiment [13] was above 100 µM.

In the case of `CCOC(=O)CCc1ccc(NC(=O)/C=C/c2ccc([N+](=O)[O-])o2)cc1`, the TGI is 7.63 µM in experiment [1]; above 100 µM in experiment [2]; 50.7 µM in [3]; 2.88 µM in [4]; 6.4 µM in experiment [5]; 1.72 µM in experiment [6]. The TGI in experiment [7] was determined as 0.547 µM; in experiment [8], 11.2 µM; in experiment [9] it was 2.01 µM; in experiment [10], 4.07 µM; in [11] it was 7.27 µM; in experiment [12], 2.95 µM. The TGI in experiment [13] turned out to be 4.43 µM.

With `CC(=O)N1N=C(c2ccc3ccccc3c2O)CC1c1ccc(N(C)C)cc1` (stereo not drawn), the TGI in experiment [1], in [3], in experiment [4], in [5], in [6] and in experiment [7] was above 100 µM throughout. The TGI in experiment [8], in [9], in experiment [10], in [11], in experiment [12] and in experiment [13] was above 100 µM throughout.

For the compound `Cc1ccc2c(c1)CC1(C2)Cc2ccc(C)cc2C1=O` (stereo not drawn), the TGI in [1] was above 100 µM; in [2], 88.7 µM; in experiment [3], 66.3 µM; in [4], above 100 µM; in experiment [5] it was above 100 µM; in experiment [6], 63 µM. Moreover, the TGI in experiment [7] is 45.7 µM; in experiment [8] it was 84.3 µM; in experiment [9], 71.9 µM; in experiment [10], above 100 µM; in experiment [11] it was above 100 µM; in experiment [12], 73.1 µM. This compound displayed a TGI in experiment [13] of 53.6 µM.

As for `Cc1ccc(CN2CCN(Cc3ccc(C)o3)C(C)C2)o1` (stereo not drawn), the TGI in experiment [1], in experiment [2], in experiment [3], in experiment [4], in experiment [5] and in experiment [6] was above 100 µM throughout. In addition, the TGI in experiment [7], in [8], in experiment [9], in experiment [10], in [11] and in experiment [12] was above 100 µM each time. The same compound returned a TGI in experiment [13] above 100 µM.

For the compound `Cc1ccc(S(=O)(=O)NNC(=O)Nc2ccc([N+](=O)[O-])cc2)cc1`, the TGI in experiment [1] is above 100 µM; in experiment [2] it was above 100 µM; in experiment [3] it was above 100 µM; in [4], 78.2 µM; in experiment [5], above 100 µM; in [6] it was 64.6 µM. The total growth inhibition concentration (TGI) in experiment [7], in [8], in [9], in experiment [10], in [11] and in experiment [12] was above 100 µM throughout. The same compound gave a TGI in [13] above 100 µM.

Take `CCOC(=O)c1csc(-c2cn(C)c3c2C(=O)C(OC)=CC3=O)n1`: the TGI in [1] was above 100 µM; in [2], above 100 µM; in [3] it was above 100 µM; in [4] it was above 31.9 µM; in experiment [5], above 100 µM; in experiment [6], above 100 µM. In addition, the TGI in experiment [7] was above 100 µM; in experiment [8], above 83.4 µM; in experiment [9] it was above 100 µM; in [10] it was above 100 µM; in experiment [11], 73.1 µM; in [12], above 50.1 µM. This compound came in with a TGI in [13] above 71.8 µM.

As to `Cc1nn(C(=O)c2ccc(Cl)cc2)c2c1C(c1ccc(Cl)cc1)SC(N)=N2` (stereo not drawn), the TGI in [1], in experiment [2], in [3], in experiment [4], in experiment [5] and in experiment [6] was above 10 µM each time. The TGI in experiment [7], in experiment [8], in [9], in experiment [10], in experiment [12] and in experiment [13] was above 10 µM throughout.

On to `COc1ccc(NC(=O)NNS(=O)(=O)c2ccc(C)cc2)cc1`, for which the TGI in experiment [1], in experiment [2], in experiment [3], in [5], in [6] and in [7] was above 100 µM each time. Also, the TGI in experiment [8], in experiment [9], in experiment [10], in [11], in experiment [12] and in experiment [13] was above 100 µM throughout.

For the compound `CCOC(=O)c1nc2cc(F)cc(F)c2[nH]c1=O`, the TGI in experiment [1], in experiment [3], in experiment [4], in experiment [5], in experiment [6] and in experiment [7] was above 100 µM each time. Moreover, the TGI in experiment [8], in experiment [9], in experiment [10], in [11], in [12] and in experiment [13] was above 100 µM throughout.

With `C1=Cc2cccc3occ(c23)C=C1`, the TGI in experiment [1], in experiment [2], in [3], in experiment [4], in experiment [5] and in [6] was above 100 µM in each case. Besides, the total growth inhibition concentration (TGI) in [7] is 79.4 µM; in [9] it was above 100 µM; in experiment [10], above 100 µM; in [11], above 100 µM; in experiment [12] it was above 100 µM; in experiment [13], above 100 µM.

In the case of `COc1nc2c(c(=O)[nH]1)N=C(c1ccc(Cl)cc1)CC(c1ccccc1)N2` (stereo not drawn), the TGI in experiment [2] is above 100 µM; in experiment [3], 67.9 µM; in [4], above 100 µM; in experiment [5] it was above 100 µM; in experiment [6] it was above 100 µM; in experiment [7] it was above 100 µM. Moreover, the TGI in experiment [8] was 54.9 µM; in experiment [9], above 100 µM; in [11], above 100 µM; in [12] it was 76.8 µM; in experiment [13], above 100 µM.

In the case of `CC[C@]1(Cc2ccc(OC)c(OC)c2)C=[N+]([O-])O[C@H](OCc2ccccc2)[C@@H]1OC(C)=O`, the TGI is 70.9 µM in experiment [1]; 67.5 µM in experiment [2]; 77.3 µM in experiment [3]; 42.5 µM in experiment [4]; above 100 µM in experiment [5]; above 100 µM in experiment [6]. Further, the TGI in experiment [7] is 27.3 µM; in [8] it was above 100 µM; in experiment [10], above 100 µM; in experiment [11] it was above 100 µM; in experiment [12], above 100 µM; in [13], 58.8 µM.

As for `O=C1c2c(O)cccc2Cc2cc(CO)cc(O)c21`, the TGI in [1] is 14.3 µM; in experiment [2], 9.62 µM; in [3] it was 4.21 µM; in experiment [4], 5.03 µM; in experiment [5], 15.2 µM; in experiment [6], 11.4 µM. Moreover, the TGI turned out to be 57.9 µM in experiment [7]; 5.44 µM in experiment [8]; 16.7 µM in experiment [9]; 14.9 µM in experiment [10]; 17.8 µM in [11]; 11.5 µM in experiment [12].

As to `CC(C)(C)NC(=S)N/N=C/c1ccccn1`, the TGI in experiment [1] was above 100 µM; in experiment [2], above 100 µM; in [3], 89.3 µM; in [4], above 100 µM; in experiment [5], above 100 µM; in [6], above 100 µM. Also, the TGI is above 100 µM in experiment [8]; 1.02 µM in experiment [9]; above 100 µM in experiment [10]; above 79.1 µM in experiment [11]; above 100 µM in [12]; above 100 µM in experiment [13].

Turning to `CCN1C/C(=C\c2ccc(Cl)cc2)c2[nH]c(=O)c(C#N)c(-c3ccc(Cl)cc3)c2C1`, the TGI in experiment [1], in experiment [2], in [3], in [4], in experiment [5] and in experiment [6] was above 100 µM each time. The TGI in experiment [7], in [9], in experiment [10], in [11], in experiment [12] and in experiment [13] was above 100 µM in each case.

Take `O=C(CCN1CCCC1)c1ccc(Oc2ccc(F)cc2)cc1`: the TGI was above 100 µM in experiment [1]; above 100 µM in experiment [2]; 41.5 µM in experiment [3]; above 100 µM in [4]; above 100 µM in experiment [5]; 31.8 µM in [6]. Further, the TGI is 43.3 µM in [7]; above 100 µM in [8]; above 100 µM in experiment [9]; above 100 µM in [10]; above 100 µM in [12]; 90.9 µM in [13].

`Nn1c(CCCCCCCCc2n[nH]c(=S)n2N)n[nH]c1=S`: the TGI in experiment [1], in experiment [2], in experiment [3], in [4], in [5] and in experiment [6] was above 100 µM throughout. The TGI in experiment [7], in experiment [8], in [9], in experiment [11], in experiment [12] and in experiment [13] was above 100 µM each time.
